Measured values published in patent US20260151379A1, “SALT TYPE AND CRYSTAL FORM OF COMPLEMENT FACTOR B INHIBITOR, AND PREPARATION METHOD THEREFOR AND APPLICATION THEREOF” (SHANGHAI MEIYUE BIOTECH DEVELOPMENT CO., LTD., priority 2022, published 2026).
Where two headings read alike, the source gives them in different places.

Legend:
[1] = Liver microsomal stability experiment (monkey); assay type: in vitro ADME, cynomolgus monkey; details: monkey liver microsomes
Description: A 0.1 M solution of dipotassium phosphate in distilled water (containing 1 mM ethylenediaminetetraacetic acid) was taken. Then the pH was adjusted to 7.4 with a 0.1 M solution of potassium dihydrogen phosphate in distilled water (containing 1 mM ethylenediaminetetraacetic acid).
• Rat: SD Rat Liver Microsomes, Cat. No.: LM-DS-02M, RILD Research Institute for Liver Diseases (Shanghai) Co. Ltd. • Monkey: Cynomolgus Monkey Liver Microsomes, Cat. No.: LM-SXH-02M, RILD Research Institute for Liver Diseases (Shanghai) Co. Ltd. • Human: Pooled Human Liver Microsomes (Mongolian), Cat. No.: LM-R-02M, RILD Research Institute for Liver Diseases (Shanghai) Co. Ltd.
A 10 mM solution of each of the control compound and test compounds was prepared in DMSO. Then 10 μL of the solution was added to 190 μL of acetonitrile to form a 0.5 mM stock solution. 1.5 μL of the 0.5 mM stock solution was measured out, and […] of 20 mg/mL liver microsomes and 479.75 μL of the buffer were added. (The actual preparation amount can be adjusted according to use).
10 mg/mL of reduced coenzyme II (NADPH) was prepared in the buffer. A 96-well plate was placed on ice. Wells corresponding to different time points (0, 10, 30, 60 and 90 min, Non-NADPH) were set for each compound. […] The mixture was analyzed on an AB SCIEX ExionLC-Triple Quad 5500 high-performance liquid chromatograph-mass spectrometer. […]

[2] = Solubility tests of compound of formula I, mixture of crystal forms A and B, and crystal form C at 37° C. (Example 13); assay type: physicochemical; details: 37° C.; for solubility at 1 h / solubility at 24 h: thermodynamic from solid; for solubility at 1 h: read-out: Solubility at 1 h; for solubility at 24 h: read-out: Solubility at 24 h
Description: An appropriate amount of a test sample was weighed out and added to a vial; 3 mL of a medium (water, SGF, FaSSIF, FeSSIF, or the like) was added; the mixture was stirred at 37° C.; […]; centrifugation was performed at 12000 rpm for 10 min; the supernatant was diluted with 50% aqueous acetonitrile solution to an appropriate multiple; and the concentration of the supernatant was determined.
Control and linearity: 10 mg of the compound of formula I was weighed out and added to a 50 mL volumetric flask, 50% aqueous acetonitrile solution was added for dissolution, and the mixture was diluted to volume. Two parts were prepared in parallel. The control was taken and diluted with 50% aqueous acetonitrile solution to 100 μg/mL, 50 μg/mL, and 10 μg/mL, 5 μL of the sample was injected, and a standard curve was plotted.

[3] = system: Streptococcus-induced rheumatoid arthritis; assay: Streptococcus-induced rheumatoid arthritis (RA) model in rats; assay type: in vivo; details: female Lewis rats, 15 mpk intragastric daily for 25 days
Description: In the experiment, 6- to 9-week-old female Lewis rats (Beijing Vital River) were used. Each group consisted of 6 rats, and they were given the cell wall peptidoglycan complexes of Streptococcus and several other species of bacteria by intraperitoneal administration (2-3 mg per rat) on D1, and were given the control compound (15 mpk) and the compound of formula I (15 mpk) by intragastric administration daily for 25 consecutive days. The arthritis in rats was scored in different phases. The scoring criteria are as follows: […] The scoring criteria are as follows: 0 points, no redness and swelling; 1 point, 1-2 red and swollen interphalangeal joints; 2 points, 3-4 red and swollen interphalangeal joints; 3 points, more than 4 red and swollen interphalangeal joints; 4 points, severe redness and swelling in toes or fingers to ankle joints or wrist joints.

Complement factor B = Complement factor B (Homo sapiens, UniProt P00751); assay: Optical surface plasmon resonance (SPR) binding capacity assay
Sequence of Complement factor B (P00751 26-764): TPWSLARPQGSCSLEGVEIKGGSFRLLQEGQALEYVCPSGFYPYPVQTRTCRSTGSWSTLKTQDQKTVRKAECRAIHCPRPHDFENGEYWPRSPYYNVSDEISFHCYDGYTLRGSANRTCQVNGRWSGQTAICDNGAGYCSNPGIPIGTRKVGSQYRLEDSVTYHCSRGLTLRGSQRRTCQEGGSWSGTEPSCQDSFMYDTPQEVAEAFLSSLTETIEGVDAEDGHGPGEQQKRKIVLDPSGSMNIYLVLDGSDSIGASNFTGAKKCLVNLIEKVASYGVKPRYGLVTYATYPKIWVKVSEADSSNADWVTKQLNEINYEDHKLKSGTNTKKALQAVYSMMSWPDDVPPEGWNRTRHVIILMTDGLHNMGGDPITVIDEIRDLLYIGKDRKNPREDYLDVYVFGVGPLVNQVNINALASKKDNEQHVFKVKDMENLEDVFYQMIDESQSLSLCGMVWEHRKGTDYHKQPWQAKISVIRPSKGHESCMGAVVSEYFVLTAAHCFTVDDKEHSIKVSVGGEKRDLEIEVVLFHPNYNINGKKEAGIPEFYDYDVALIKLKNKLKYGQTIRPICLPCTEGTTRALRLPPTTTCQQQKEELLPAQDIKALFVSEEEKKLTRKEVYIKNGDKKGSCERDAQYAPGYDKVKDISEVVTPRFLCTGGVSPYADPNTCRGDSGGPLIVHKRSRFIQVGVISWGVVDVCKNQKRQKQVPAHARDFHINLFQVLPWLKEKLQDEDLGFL
Description: An SPR experiment was carried out at 25° C. In the experiment, a PBS buffer supplemented with 0.05% (v/v) P20 and 5% DMSO was used as a running buffer, and the analytical instrument Biacore 8K of GE Healthcare was used. A CM7 chip (GE Healthcare) was activated with 400 mM EDC and 100 mM NHS at a flow rate of 30 μL/min for 420 s. […] Then the assay chip was treated with 1 M ethanolamine hydrochloride at a flow rate of 10 μL/min for 300 s for chip blocking. The concentration of the test compound was 500 μM, the binding time was 120 s, and the dissociation time was 300 s. Data analysis was performed using a 1:1 binding model (Biacore Insight Evaluation Software, Version 2.0.15.12933).

[4] = Stability tests of compound of formula I and its monohydrochloride, phosphate and maleate (Example 4); assay type: physicochemical
Description: The stability of the compound of formula I, the monohydrochloride of the compound of formula I in Example 1, the phosphate of the compound of formula I in Example 2, and the maleate of the compound of formula I in Example 3 were investigated.
Stability investigation conditions: 40° C./75% RH-closed, 40° C./75% RH-open, and 60° C.-closed; stability investigation content: changes in related substances and crystal forms.
Detection of related substances: about 6-7 mg of a sample was separately weighed out and added to a 10 mL volumetric flask; 50% aqueous acetonitrile solution was added for dissolution; the mixture was diluted to volume; and 10 μL of the sample was injected.

COc1cc(C)c2[nH]ccc2c1CN1CC[C@H](OCC2CC2)C[C@H]1c1ccc(C(=O)O)cc1 [Compound of formula I]
MMS (monkey) Remaining (T = 90 min) [1]: 93.32% | Final pH ([2]; FaSSIF): 6.44 | Final pH ([2]; FessIF): 5.03 | Final pH ([2]; SGF): 1.74 | Final pH ([2]; Water): 8.73 | solubility at 1 h ([2]; simulated gastric fluid, SGF): 5510 µg/mL | solubility at 24 h ([2]; simulated gastric fluid, SGF): 5480 µg/mL | solubility at 1 h ([2]; FassIF): 220 µg/mL | solubility at 24 h ([2]; FassIF): 190 µg/mL | solubility at 1 h ([2]; FessIF): 370 µg/mL | solubility at 24 h ([2]; FessIF): 350 µg/mL | solubility at 1 h ([2]; Water): 370 µg/mL | solubility at 24 h ([2]; Water): 310 µg/mL | Arthritis score (in words, FIG. 23) [3]: can improve the arthritis score | Effect on arthritis score versus control compound (in words) [3]: significantly better effect than that of the control compound | Rmax (RU) (Complement factor B; test compound 500 μM, 25° C., 1:1 binding model): 274.2 RU | Binding capacity to the target protein (in words) (Complement factor B; versus control compound): significantly superior to that of the control compound | Stability (conclusion in words from Table 7) ([4]; 40° C./75% RH closed/open and 60° C. closed, 2 wks, listed as compound of formula I): stable | Maximum single impurity % ([4]; 40° C./75% RH-closed-2 wks): 0.16% | Purity % ([4]; 40° C./75% RH-closed-2 wks): 99.23% | Total impurity % ([4]; 40° C./75% RH-closed-2 wks): 0.77% | Maximum single impurity % ([4]; 40° C./75% RH-open-2 wks): 0.17% | Purity % ([4]; 40° C./75% RH-open-2 wks): 99.24% | Total impurity % ([4]; 40° C./75% RH-open-2 wks): 0.76% | Maximum single impurity % ([4]; 60° C.-closed-2 wks): 0.33% | Purity % ([4]; 60° C.-closed-2 wks): 98.95% | Total impurity % ([4]; 60° C.-closed-2 wks): 1.05% | Maximum single impurity % ([4]; Initial): 0.10% | Purity % ([4]; Initial): 99.28% | Total impurity % ([4]; Initial): 0.72%
